Experiment [1] has as its target CK1d (Homo sapiens, UniProt P48730). Put plainly: biochemical.
Experiment [2] has as its target T1, CaMK4 (Homo sapiens, UniProt Q16566).
T1 sequence (Q16566 1-473): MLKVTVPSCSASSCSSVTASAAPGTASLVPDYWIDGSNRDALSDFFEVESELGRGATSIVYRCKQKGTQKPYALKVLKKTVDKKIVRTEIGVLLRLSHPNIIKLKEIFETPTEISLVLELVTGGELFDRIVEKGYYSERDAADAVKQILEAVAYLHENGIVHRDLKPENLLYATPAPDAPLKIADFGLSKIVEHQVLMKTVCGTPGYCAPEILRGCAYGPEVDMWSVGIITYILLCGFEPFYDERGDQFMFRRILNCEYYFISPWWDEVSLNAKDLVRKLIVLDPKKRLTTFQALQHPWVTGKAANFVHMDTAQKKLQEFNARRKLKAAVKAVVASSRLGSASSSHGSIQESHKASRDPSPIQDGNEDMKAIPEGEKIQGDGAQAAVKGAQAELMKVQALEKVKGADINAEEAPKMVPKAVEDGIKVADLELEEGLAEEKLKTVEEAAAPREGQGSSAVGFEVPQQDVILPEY
Put plainly: biochemical.

In experiment [3] the target is DYRK1A (Homo sapiens, UniProt Q13627). Description: biochemical.
Experiment [4] has as its target EpHA2 (Homo sapiens, UniProt P29317). Put plainly: biochemical.
Experiment [5] deals with FGFR1 (Homo sapiens, UniProt P11362). Description: biochemical.
Experiment [6] has as its target GPRK5 (Homo sapiens, UniProt P34947). Description: biochemical.
For experiment [7], the target named is PCTAIRE1 (Homo sapiens, UniProt Q00536). Put plainly: biochemical.
Experiment [8] addresses PIM1 (Homo sapiens, UniProt P11309). Put plainly: biochemical.
For experiment [9], the target named is T2, EpHA1 (Homo sapiens, UniProt P21709).
T2 sequence (P21709 26-976): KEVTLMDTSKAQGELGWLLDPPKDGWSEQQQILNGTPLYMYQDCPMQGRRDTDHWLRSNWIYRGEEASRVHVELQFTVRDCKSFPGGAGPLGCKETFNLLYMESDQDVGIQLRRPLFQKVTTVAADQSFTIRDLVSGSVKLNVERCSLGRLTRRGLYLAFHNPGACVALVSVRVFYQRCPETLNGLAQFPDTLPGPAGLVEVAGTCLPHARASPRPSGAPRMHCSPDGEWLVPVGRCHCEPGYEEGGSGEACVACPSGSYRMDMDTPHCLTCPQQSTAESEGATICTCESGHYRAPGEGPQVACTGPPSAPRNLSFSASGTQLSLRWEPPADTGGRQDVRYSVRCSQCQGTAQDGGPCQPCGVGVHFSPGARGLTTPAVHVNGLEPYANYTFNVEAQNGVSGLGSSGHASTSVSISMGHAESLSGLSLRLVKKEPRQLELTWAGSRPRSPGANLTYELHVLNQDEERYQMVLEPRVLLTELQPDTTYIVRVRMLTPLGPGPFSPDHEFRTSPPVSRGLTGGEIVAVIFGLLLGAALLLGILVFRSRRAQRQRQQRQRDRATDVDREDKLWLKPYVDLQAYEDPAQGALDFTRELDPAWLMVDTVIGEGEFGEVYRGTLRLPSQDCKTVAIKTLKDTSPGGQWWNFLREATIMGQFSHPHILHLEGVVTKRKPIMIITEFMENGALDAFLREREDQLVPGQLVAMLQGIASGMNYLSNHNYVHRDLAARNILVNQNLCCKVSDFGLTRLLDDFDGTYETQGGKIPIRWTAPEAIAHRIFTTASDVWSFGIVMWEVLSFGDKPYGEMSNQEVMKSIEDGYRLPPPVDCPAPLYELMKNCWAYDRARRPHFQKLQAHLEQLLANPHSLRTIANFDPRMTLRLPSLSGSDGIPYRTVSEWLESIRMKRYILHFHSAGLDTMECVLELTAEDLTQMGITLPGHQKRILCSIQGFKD
Description: NanoBRET target engagement. Type of experiment: cell-based.

For experiment [10], the target named is JNK1 (Homo sapiens, UniProt P45983). Description: biochemical.

Like-named read-outs stand apart in the source and are kept apart here.

Chain of GPRK5 (P34947 whole entry): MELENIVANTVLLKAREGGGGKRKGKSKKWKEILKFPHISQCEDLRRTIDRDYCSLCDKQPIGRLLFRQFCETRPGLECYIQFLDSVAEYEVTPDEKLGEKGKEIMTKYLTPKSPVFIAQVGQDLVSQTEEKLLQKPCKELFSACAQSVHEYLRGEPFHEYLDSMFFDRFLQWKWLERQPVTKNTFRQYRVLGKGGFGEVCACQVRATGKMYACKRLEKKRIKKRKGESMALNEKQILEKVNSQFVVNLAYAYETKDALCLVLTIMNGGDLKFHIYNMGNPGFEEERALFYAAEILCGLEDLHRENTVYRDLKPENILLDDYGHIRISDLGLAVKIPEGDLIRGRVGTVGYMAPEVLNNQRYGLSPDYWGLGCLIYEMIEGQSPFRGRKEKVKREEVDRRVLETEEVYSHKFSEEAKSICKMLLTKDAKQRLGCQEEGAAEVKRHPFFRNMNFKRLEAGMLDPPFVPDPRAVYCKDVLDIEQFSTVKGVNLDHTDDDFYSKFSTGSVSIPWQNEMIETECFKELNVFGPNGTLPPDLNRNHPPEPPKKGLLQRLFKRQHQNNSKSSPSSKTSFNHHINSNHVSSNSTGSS
Chain of EpHA2 (P29317 whole entry): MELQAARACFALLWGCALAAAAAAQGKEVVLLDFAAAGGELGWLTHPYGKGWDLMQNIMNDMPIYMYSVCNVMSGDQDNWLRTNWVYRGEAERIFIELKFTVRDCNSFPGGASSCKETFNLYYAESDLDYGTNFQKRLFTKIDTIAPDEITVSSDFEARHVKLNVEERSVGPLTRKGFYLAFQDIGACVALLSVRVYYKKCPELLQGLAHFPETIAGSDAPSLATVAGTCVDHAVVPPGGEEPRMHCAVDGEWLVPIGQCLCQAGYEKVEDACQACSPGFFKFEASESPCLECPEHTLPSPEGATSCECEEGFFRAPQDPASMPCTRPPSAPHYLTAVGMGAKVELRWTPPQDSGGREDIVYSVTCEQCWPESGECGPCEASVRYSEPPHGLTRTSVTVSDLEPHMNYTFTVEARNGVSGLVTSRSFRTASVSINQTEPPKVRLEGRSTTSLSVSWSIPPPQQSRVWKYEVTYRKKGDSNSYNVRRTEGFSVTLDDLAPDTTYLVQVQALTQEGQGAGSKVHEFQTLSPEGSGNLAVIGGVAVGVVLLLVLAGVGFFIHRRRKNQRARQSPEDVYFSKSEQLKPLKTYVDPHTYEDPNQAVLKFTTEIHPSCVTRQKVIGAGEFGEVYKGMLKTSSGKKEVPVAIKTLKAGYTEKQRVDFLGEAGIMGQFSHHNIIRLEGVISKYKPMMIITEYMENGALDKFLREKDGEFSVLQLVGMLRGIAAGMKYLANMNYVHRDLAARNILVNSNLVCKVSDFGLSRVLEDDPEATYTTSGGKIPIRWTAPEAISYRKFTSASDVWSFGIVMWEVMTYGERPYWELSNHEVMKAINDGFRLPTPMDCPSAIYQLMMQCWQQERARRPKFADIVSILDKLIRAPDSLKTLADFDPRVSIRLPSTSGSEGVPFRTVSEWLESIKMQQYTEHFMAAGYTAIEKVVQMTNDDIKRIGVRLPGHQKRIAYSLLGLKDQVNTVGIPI
Chain of PCTAIRE1 (Q00536 whole entry): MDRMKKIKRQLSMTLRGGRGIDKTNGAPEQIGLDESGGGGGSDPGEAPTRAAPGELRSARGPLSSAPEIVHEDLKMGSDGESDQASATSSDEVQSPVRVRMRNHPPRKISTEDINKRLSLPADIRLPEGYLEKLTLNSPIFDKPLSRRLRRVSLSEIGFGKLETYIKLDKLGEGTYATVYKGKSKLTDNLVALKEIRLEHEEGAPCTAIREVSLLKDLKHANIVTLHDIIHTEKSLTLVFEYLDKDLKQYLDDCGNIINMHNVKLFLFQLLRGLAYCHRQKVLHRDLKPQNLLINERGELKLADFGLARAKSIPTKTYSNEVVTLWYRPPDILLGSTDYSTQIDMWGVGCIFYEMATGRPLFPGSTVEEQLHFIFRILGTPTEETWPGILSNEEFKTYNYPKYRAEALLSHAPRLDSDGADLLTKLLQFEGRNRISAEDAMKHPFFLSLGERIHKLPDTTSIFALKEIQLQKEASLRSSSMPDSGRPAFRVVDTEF
Chain of JNK1 (P45983 whole entry): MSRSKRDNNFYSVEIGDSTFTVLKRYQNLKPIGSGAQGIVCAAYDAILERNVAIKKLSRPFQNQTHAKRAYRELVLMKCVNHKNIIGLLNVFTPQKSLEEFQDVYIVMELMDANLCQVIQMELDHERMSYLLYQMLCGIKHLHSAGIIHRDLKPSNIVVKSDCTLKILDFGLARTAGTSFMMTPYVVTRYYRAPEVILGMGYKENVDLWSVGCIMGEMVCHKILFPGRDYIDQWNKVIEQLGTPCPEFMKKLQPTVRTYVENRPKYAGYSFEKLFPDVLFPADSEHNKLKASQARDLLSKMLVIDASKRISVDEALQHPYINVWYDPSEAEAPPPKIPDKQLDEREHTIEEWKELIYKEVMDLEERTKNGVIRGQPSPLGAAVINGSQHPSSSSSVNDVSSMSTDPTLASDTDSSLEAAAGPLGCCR
Chain of FGFR1 (P11362 whole entry): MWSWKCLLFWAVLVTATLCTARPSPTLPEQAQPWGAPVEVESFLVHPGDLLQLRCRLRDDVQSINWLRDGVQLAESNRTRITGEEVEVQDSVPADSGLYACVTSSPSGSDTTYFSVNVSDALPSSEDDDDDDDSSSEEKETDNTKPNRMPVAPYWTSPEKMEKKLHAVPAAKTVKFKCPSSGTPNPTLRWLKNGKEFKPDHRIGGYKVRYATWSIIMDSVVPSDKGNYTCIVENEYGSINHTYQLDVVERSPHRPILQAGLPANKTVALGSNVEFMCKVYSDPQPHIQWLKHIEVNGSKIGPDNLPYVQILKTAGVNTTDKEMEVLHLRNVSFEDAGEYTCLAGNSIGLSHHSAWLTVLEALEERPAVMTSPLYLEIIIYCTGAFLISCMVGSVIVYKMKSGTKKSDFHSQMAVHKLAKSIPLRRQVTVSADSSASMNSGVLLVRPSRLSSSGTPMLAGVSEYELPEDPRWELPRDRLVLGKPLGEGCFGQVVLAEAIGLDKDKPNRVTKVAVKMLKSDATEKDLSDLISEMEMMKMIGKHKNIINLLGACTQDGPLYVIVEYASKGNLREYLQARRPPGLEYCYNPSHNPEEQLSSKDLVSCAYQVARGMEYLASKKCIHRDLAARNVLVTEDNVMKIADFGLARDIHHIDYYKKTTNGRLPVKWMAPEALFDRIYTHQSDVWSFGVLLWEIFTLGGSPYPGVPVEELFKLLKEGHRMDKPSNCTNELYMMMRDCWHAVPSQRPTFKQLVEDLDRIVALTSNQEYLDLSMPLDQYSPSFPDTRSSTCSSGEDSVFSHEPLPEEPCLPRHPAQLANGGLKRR
Chain of CK1d (P48730 whole entry): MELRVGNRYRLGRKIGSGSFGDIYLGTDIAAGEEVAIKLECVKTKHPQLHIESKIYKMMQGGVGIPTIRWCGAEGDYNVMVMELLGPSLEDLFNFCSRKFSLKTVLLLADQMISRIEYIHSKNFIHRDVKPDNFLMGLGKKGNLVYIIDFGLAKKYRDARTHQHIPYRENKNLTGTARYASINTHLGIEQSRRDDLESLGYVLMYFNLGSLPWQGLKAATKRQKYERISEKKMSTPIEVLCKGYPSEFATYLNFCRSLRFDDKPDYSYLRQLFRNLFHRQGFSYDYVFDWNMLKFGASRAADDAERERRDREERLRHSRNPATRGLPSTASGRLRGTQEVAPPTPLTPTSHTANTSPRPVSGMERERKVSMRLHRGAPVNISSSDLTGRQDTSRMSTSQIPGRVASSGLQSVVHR
Chain of PIM1 (P11309 whole entry): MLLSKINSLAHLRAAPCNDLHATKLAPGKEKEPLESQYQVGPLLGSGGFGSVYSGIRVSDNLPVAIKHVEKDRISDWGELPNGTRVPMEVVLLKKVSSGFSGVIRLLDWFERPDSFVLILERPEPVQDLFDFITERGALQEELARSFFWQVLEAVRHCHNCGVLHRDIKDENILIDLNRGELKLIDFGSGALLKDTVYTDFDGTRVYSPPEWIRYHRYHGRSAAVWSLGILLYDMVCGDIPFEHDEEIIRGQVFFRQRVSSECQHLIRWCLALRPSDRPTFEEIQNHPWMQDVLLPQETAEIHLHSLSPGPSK

As to `CNc1ncc2cc(-c3ccc(-c4cccc(C)n4)cc3Cl)c(=O)n(CC3OCC(N)CO3)c2n1` (stereo not shown) [compound 2, G-5555], the “dTm G-5555 (2)” value in [1] (10 µM, binder) is 0.4 °C; in experiment [2] (10 µM, binder), 0.7 °C; in experiment [3] (10 µM, binder) it was -1.0 °C; in [4] (10 µM, binder), 2.2 °C; in experiment [5] (10 µM, binder), -0.1 °C; in experiment [6] (10 µM, binder), -0.2 °C. For the same compound, the “dTm G-5555 (2)” value in experiment [7] (10 µM, binder) was 1.3 °C; in [8] (10 µM, binder), -1.6 °C.

`CNc1ncc2cc(-c3ccccc3Cl)c(=O)n(CCCCN)c2n1` [compound 4, 8-(4-Aminobutyl)-6-(2-chlorophenyl)-2-(methylamino)pyrido[2,3-d]pyrimidin-7(8H)-one]: half-maximal inhibition in experiment [9] (IC50) was put at 0.012 ± 0.002 µM. Besides, the ΔTm at 10 µM in experiment [1] (read-out: dTm MR21 (4)) was 2.9 °C; in experiment [2] (read-out: dTm MR21 (4)), 0.8 °C; in experiment [3] (read-out: dTm MR21 (4)) it was 1.4 °C; in [5] (read-out: dTm MR21 (4)) it was 3.3 °C; in [6] (read-out: dTm MR21 (4)), -1.2 °C; in [10] (read-out: dTm MR21 (4)), 0.9 °C. Besides, the ΔTm at 10 µM is 1.8 °C in experiment [7] (read-out: dTm MR21 (4)) and 0.4 °C in [8] (read-out: dTm MR21 (4)).

The compound `CNc1ncc2cc(-c3cc(Cl)ccc3Cl)c(=O)n(CCCCN)c2n1` [compound 8, 8-(4-Aminobutyl)-6-(2,5-dichlorophenyl)-2-(methylamino)pyrido[2,3-d]pyrimidin-7(8H)-one] gave an IC50 in experiment [9] of 0.082 ± 0.003 µM.

As to `CNc1ncc2cc(-c3cc(Br)ccc3Cl)c(=O)n(C[C@H]3OC[C@H](N)CO3)c2n1` [compound 7, 8-(((2r,5r)-5-Amino-1,3-dioxan-2-yl)methyl)-6-(5-bromo-2-chlorophenyl)-2-(methylamino)pyrido[2,3-d]pyrimidin-7(8H)-one], the ΔTm at 10 µM in experiment [1] (read-out: dTm 7) was -0.1 °C; in experiment [2] (read-out: dTm 7), 0.1 °C; in experiment [3] (read-out: dTm 7), -0.6 °C; in [4] (read-out: dTm 7), 4.8 °C; in [5] (read-out: dTm 7), 2.9 °C; in experiment [6] (read-out: dTm 7), 0.2 °C. For the same compound, the ΔTm at 10 µM in experiment [10] (read-out: dTm 7) stood at 0.9 °C; in [7] (read-out: dTm 7), 0.1 °C; in experiment [8] (read-out: dTm 7), 0.6 °C.

As for `CNc1ncc2cc(-c3cc(Br)ccc3Cl)c(=O)n(CCCCN)c2n1` [compound 6, 8-(4-Aminobutyl)-6-(5-bromo-2-chlorophenyl)-2-(methylamino)pyrido[2,3-d]pyrimidin-7(8H)-one], the ΔTm at 10 µM in [1] (read-out: dTm 6) was 0.9 °C; in [2] (read-out: dTm 6) it was -0.1 °C; in experiment [3] (read-out: dTm 6) it was 0 °C; in experiment [4] (read-out: dTm 6), 6.7 °C; in experiment [5] (read-out: dTm 6), 3 °C; in [6] (read-out: dTm 6) it was 0 °C. Besides, the ΔTm at 10 µM in experiment [10] (read-out: dTm 6) stood at 0.2 °C; in experiment [7] (read-out: dTm 6) it was 1.1 °C; in [8] (read-out: dTm 6) it was 1.2 °C.

With `CNc1ncc2cc(-c3cc(F)ccc3F)c(=O)n(CCCCN)c2n1` [compound 5, 8-(4-Aminobutyl)-6-(2,5-difluorophenyl)-2-(methylamino)pyrido[2,3-d]pyrimidin-7(8H)-one], the IC50 in experiment [9] (intact mode, HEK293T, 37 °C, 2 h, tracer displacement) is 0.145 ± 0.017 µM. Also, the ΔTm at 10 µM in experiment [1] (read-out: dTm MR22 (5)) was 1.3 °C; in [2] (read-out: dTm MR22 (5)) it was -0.6 °C; in [3] (read-out: dTm MR22 (5)), 0 °C; in [4] (read-out: dTm MR22 (5)), 6.5 °C; in experiment [5] (read-out: dTm MR22 (5)), 3.4 °C; in experiment [6] (read-out: dTm MR22 (5)) it was -0.6 °C. Besides, the values for the ΔTm at 10 µM in experiment [10] (read-out: dTm MR22 (5)), in experiment [7] (read-out: dTm MR22 (5)) and in experiment [8] (read-out: dTm MR22 (5)) were 5.5 °C, 0.3 °C and 1.1 °C, respectively.

For the origin of these results see paper doi:10.1101/2023.03.24.534094v2 (biorxiv, 2023).
